Among the data in PubChem BioAssay (NCI) are TGI and GI50 values, retold here.

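Following 48 hours of exposure in 96-well plates, responses at five concentrations were used to interpolate endpoints linearly. Here, GI50 denotes the concentration required for 50% inhibition of growth. The concentration for full growth arrest is given as TGI.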 Some results are limits rather than exact numbers.

What all share (assay): DTP human tumour cell line panel, 48 h
For experiment [1], the system named is K-562 leukemia.
Experiment [2] has as its system UACC-257 melanoma.
The test system of experiment [3] is A549 NSCLC.
The test system of experiment [4] is OVCAR-5 ovarian.
In experiment [5] the test system is NCI/ADR-RES ovarian.
For experiment [6], the system named is NCI-H23 lung.
In experiment [7] the test system is SW-620 colon.
Experiment [8] has as its system HOP-62 NSCLC.
Experiment [9] has as its system SNB-75 CNS.
In experiment [10] the test system is RPMI-8226 leukemia.

Turning to `O=S1(=O)c2ccccc2N(c2ccccc2)c2nnnn21`, the TGI – broadly, the concentration giving total growth inhibition – is above 100 µM in [1]; above 100 µM in experiment [2]; above 100 µM in experiment [3]; above 100 µM in experiment [4]; above 100 µM in experiment [5]; 59.6 µM in experiment [6]. In addition, the TGI in experiment [7] was 53.6 µM; in [8], 45.9 µM.

Turning to `Cc1ccccc1NC(=O)Cc1nc2ccccc2s1`, the TGI was 38.7 µM in experiment [1]; 30.8 µM in experiment [2]; 33.6 µM in experiment [3]; 36.3 µM in experiment [4]; 27.8 µM in experiment [6]; 36 µM in [7]. For the same compound, the TGI in experiment [9] was above 100 µM.

With `CC(=O)[CH-]C(=O)c1ccccc1.CC(=O)[CH-]C(=O)c1ccccc1.Cl.[O-]c1ccnc2ccccc12.[O-]c1ccnc2ccccc12.[Ti+4]`, the GI50 in experiment [1], in experiment [2], in [4], in [10], in experiment [6] and in experiment [7] was above 100 µM throughout. The GI50 in experiment [9] and in experiment [8] was above 100 µM throughout. Moreover, the concentration for total growth inhibition (TGI) in [1], in experiment [2], in experiment [4], in [10], in [6] and in experiment [7] was above 100 µM throughout. For the same compound, the TGI in experiment [9] and in [8] was above 100 µM in each case.

Turning to `Cc1ccc(S(=O)(=O)OCOS(=O)(=O)c2ccc(C)cc2)cc1`, the TGI in [1], in experiment [2], in [3], in experiment [4], in [10] and in experiment [6] was above 100 µM in each case. Also, the TGI in experiment [7] and in [8] was above 100 µM each time.

For the compound `CCOC(=O)C1=C(OC(OCC)C([Se]c2ccccc2)C(C)C)CCC1` (configuration not stated), the TGI is above 100 µM in experiment [1]; 75.4 µM in [2]; above 100 µM in experiment [3]; 59.4 µM in experiment [4]; 38.5 µM in [10]; 22.3 µM in experiment [6]. In addition, the results for the TGI in experiment [9] and in experiment [8] were 62.5 µM and above 100 µM, respectively.

As to `COC(=O)C1=CC2C(=O)OC1C1C(=O)NC(=O)C21` (configuration not stated), the TGI in [1], in experiment [2], in experiment [3], in experiment [10], in experiment [6] and in experiment [7] was above 100 µM in each case. The TGI in experiment [9] and in experiment [8] was above 100 µM throughout.

As to `O=C(/C=C/c1ccc(Cl)c(Cl)c1)c1ccccc1Cl`, the TGI was 19.4 µM in [1]; 27.7 µM in experiment [2]; 31.6 µM in experiment [3]; 30.4 µM in experiment [4]; above 29.1 µM in [10]; 26.9 µM in [6]. Also, the TGI was 9.16 µM in experiment [7], 27.5 µM in experiment [9] and 34.2 µM in [8].

With `CCC12C=CCN(CCc3c([nH]c4ccccc34)/C=C\1)C2` (configuration not stated), the TGI in experiment [1], in experiment [2], in experiment [3], in experiment [10], in [6] and in [7] was above 100 µM in each case. For the same compound, the TGI in experiment [9] and in [8] was above 100 µM throughout.

Consider `O=c1nc2sc3ccccc3c(=O)n2[nH]1`, for which the TGI in [1], in [2], in experiment [3], in [4], in experiment [10] and in experiment [6] was above 100 µM throughout. Besides, the TGI in experiment [7], in experiment [9] and in [8] was above 100 µM in each case.

Consider `CCOC(=O)c1cc(=O)n(C)c(=O)n1C`, for which the concentration for total growth inhibition (TGI) in experiment [1], in [2], in [3], in experiment [4], in experiment [6] and in [7] was above 100 µM each time. The TGI in [9] and in experiment [8] was above 100 µM throughout.

For the compound `Cc1ccc2c(c1)-c1c3c(nn1C)-c1ccccc1SC3O2` (configuration not stated), the TGI in [1], in experiment [2], in experiment [3], in [4], in experiment [10] and in experiment [6] was above 100 µM throughout. Further, the TGI in experiment [7], in experiment [9] and in [8] was above 100 µM each time.

Consider `C=C1C(=O)O[C@H](c2ccoc2)C[C@@H]1[C@@]1(C)CCCC2(C)C(=O)OCC21` (some centres not stated), for which the TGI in experiment [1], in experiment [2], in [3], in experiment [4], in experiment [10] and in [6] was above 100 µM throughout. The TGI in experiment [7], in experiment [9] and in experiment [8] was above 100 µM in each case.

As for `Cc1cccc(NC(=O)C(=O)C(C2OC(=O)c3ccccc32)[N+](=O)[O-])c1C` (configuration not stated), the TGI in experiment [1] was determined as 39.7 µM; in experiment [2], 17.6 µM; in experiment [3] it was 35.4 µM; in experiment [4], 33.3 µM; in [6], 18.9 µM; in [7], 20.9 µM. Also, the TGI is 19.7 µM in experiment [9] and 31.1 µM in [8].

Regarding `O=C1c2ccccc2C(=O)N1CCCOCc1c[nH]c(=O)[nH]c1=O`, the TGI in [1], in experiment [2], in experiment [3], in experiment [4], in experiment [10] and in [6] was above 100 µM in each case. Besides, the TGI in experiment [7], in [9] and in [8] was above 100 µM in each case.

For `CN(C)NC(=O)/C(=C/c1ccc(Cl)cc1)NC(=O)c1ccccc1`, the TGI in experiment [1], in experiment [2], in [3], in [4], in experiment [10] and in experiment [6] was above 100 µM in each case. The TGI in experiment [9] and in [8] was above 100 µM each time.
